In patent US20260306429A1, “COMPOSITION FOR REDUCING METHANE PRODUCTION AND IMPROVING NITROGEN UTILIZATION EFFICIENCY OF RUMINANT ANIMALS COMPRISING HALOACETAMIDE AS ACTIVE INGREDIENT” (CHUNGANG UNIVERSITY INDUSTRY ACADEMIC COOPERATION FOUNDATION, priority 2024, published 2026):

Key:
[1] = in words; cited from earlier work
[2] = test system: Ruminococcus albus; assay: qPCR absolute quantification of Ruminococcus albus after in vitro rumen incubation; assay type: cell-based; conditions: 0.2 mmol/L, 24 h
Experimental: (§1) Rumen fluid was sampled from Hanwoo cows at the Nonghyup Research Farm in Anseong, Gyeonggi Province, and mixed with buffer at a ratio of 1:2 within 1 hour of sampling. Oat hay was used as the forage, and pelleted feed for the middle fattening period was used as the concentrate. After grinding, the forage and concentrate were mixed at a ratio of 1:1 after passing through a 1-mm screen. 50 ml of culture medium was dispensed into 0.5 g of dry matter, and the control group and the five experimental groups (acrylamide, chloroacetamide, glycolamide, iodoacetamide, and propionamide) were each incubated for 24 hours with five replicates. The control group was incubated in 50 mL of culture medium, whereas the experimental groups were incubated in 49.9 mL of culture medium plus 0.1 mL of deionized water. For the five experimental groups, the supplementation level of each amide was set to 0.2 mmol/L (final concentration), and the amounts added were 1.4216 mg/g for acrylamide, 1.8702 mg/g for 2-chloroacetamide, 1.4618 mg/g for propionamide, 1.5014 mg/g for glycolamide, and 3.6992 mg/g for iodoacetamide.
(§2) Gas pressure was measured at 0, 3, 6, 12, and 24 hours (gas collection intervals), and the gas released during each measurement was collected to determine the total gas production and methane production up to the final 24 hours. After completing the 24-hour incubation, pH, ammonia nitrogen (NH3—N), dry matter digestibility, neutral detergent fiber digestibility, volatile fatty acids (VFA), and the microbiome were analyzed.
(§3) Metagenomic DNA was extracted using the RBB+C method, followed by qPCR analysis and microbiome analysis. Microbial functions were predicted using PICRUSt2. Taxonomic drivers of differentially enriched MetaCyc pathways were identified using Fish Taco (Functional Shifts' Taxonomic Contributor).
(§4) Data conforming to normal distribution and homogeneity of variance were analyzed using the GLIMMIX procedure of SAS and Tukey's HSD test. […] Differences in the overall bacteriota and their functional profiles were analyzed using PERMANOVA. Differentially abundant microbial biomarkers were identified using multivariable association analysis with the MaAsLin2 R package, based on relatively abundant bacterial taxa and predicted microbial functions.
(§5) For the control group and the five experimental groups (acrylamide, chloroacetamide, glycolamide, iodoacetamide, and propionamide), the effects of the amide compounds on the absolute quantification of total bacteria, methanogens, protozoa, and specific cellulolytic bacterial species (Fibrobacter succinogenes, Ruminococcus flavefaciens, Ruminococcus albus, and Prevotella ruminicola) are presented in Table 3 below as quantitative real-time PCR data.

[3] = test system: Ruminococcus flavefaciens; assay: qPCR absolute quantification of Ruminococcus flavefaciens after in vitro rumen incubation; assay type: cell-based; conditions: 0.2 mmol/L, 24 h
Experimental: as §1, §2, §3, §4, §5

[4] = test system: Total methanogen; assay: qPCR absolute quantification of methanogens after in vitro rumen incubation; assay type: cell-based, rumen fluid of Hanwoo cows; conditions: 0.2 mmol/L, 24 h
Experimental: as §1, §2, §3, §4, §5

[5] = test system: Total protozoa; assay: qPCR absolute quantification of protozoa after in vitro rumen incubation; assay type: cell-based, rumen fluid of Hanwoo cows; conditions: 0.2 mmol/L, 24 h
Experimental: as §1, §2, §3, §4, §5

[6] = test system: Fibrobacter succinogenes; assay: qPCR absolute quantification of Fibrobacter succinogenes after in vitro rumen incubation; assay type: cell-based; conditions: 0.2 mmol/L, 24 h
Experimental: as §1, §2, §3, §4, §5

[7] = test system: rumen microbiome; assay: Alpha-diversity measurements of the rumen microbiome; assay type: cell-based, rumen fluid of Hanwoo cows; conditions: 0.2 mmol/L, 24 h
Experimental: as §1, §2, §3, §4
The alpha-diversity measurements for the control group and the five experimental groups (acrylamide, chloroacetamide, glycolamide, iodoacetamide, and propionamide) are presented in Table 4 below.

[8] = test system: rumen fluid; assay: In vitro incubation of rumen fluid: digestibility, fermentation characteristics, gas and methane production, VFA; assay type: cell-based, Hanwoo cows; conditions: 0.2 mmol/L; for A:P ratio (acetate:propionate ratio) / DMD (dry matter digestibility) / NDFD (neutral detergent fiber digestibility) / NH3—N (ammonia nitrogen) / pH / Acetate / Butyrate / Isobutyrate / Isovalerate / Propionate / Valerate / Total VFA (total volatile fatty acids) / methane-reducing effects: 24 h; for CH4 (methane production per gram of degraded dry matter) / CH4 (methane production) / TGP (total gas production): up to 24 h; for methane-reducing effects: in words, from Table 1
Experimental: as §1, §2, §4

[9] = test system: Total bacteria; assay: qPCR absolute quantification of total bacteria after in vitro rumen incubation; assay type: cell-based, rumen fluid of Hanwoo cows; conditions: 0.2 mmol/L, 24 h
Experimental: as §1, §2, §3, §4, §5

[10] = test system: Prevotella ruminicola; assay: qPCR absolute quantification of Prevotella ruminicola after in vitro rumen incubation; assay type: cell-based; conditions: 0.2 mmol/L, 24 h
Experimental: as §1, §2, §3, §4, §5

[11] = test system: rumen microbiota; assay: Differentially abundant genera and species in response to haloacetamide treatment; taxonomic drivers; assay type: cell-based, rumen fluid of Hanwoo cows; conditions: in words
Experimental: Rumen fluid was sampled from Hanwoo cows at the Nonghyup Research Farm in Anseong, Gyeonggi Province, and mixed with buffer at a ratio of 1:2 within 1 hour of sampling. Oat hay was used as the forage, and pelleted feed for the middle fattening period was used as the concentrate. After grinding, the forage and concentrate were mixed at a ratio of 1:1 after passing through a 1-mm screen. 50 ml of culture medium was dispensed into 0.5 g of dry matter, and the control group and the five experimental groups (acrylamide, chloroacetamide, glycolamide, iodoacetamide, and propionamide) were each incubated for 24 hours with five replicates. […]
as §2, with “analyzed. […]” for “analyzed.”
Data conforming to normal distribution and homogeneity of variance were analyzed using the GLIMMIX procedure of SAS and Tukey's HSD test. […] Differences in the overall bacteriota and their functional profiles were analyzed using PERMANOVA. […]

SMILES | Ruminococcus albus (absolute quantification, qPCR) [2] | Ruminococcus flavefaciens (absolute quantification, qPCR) [3] | Total methanogen (absolute quantification, qPCR) [4] | Total protozoa (absolute quantification, qPCR) [5] | Fibrobacter succinogenes (absolute quantification, qPCR) [6] | Chao1 [7] | Evenness [7] | Observed features [7] | Shannon [7] | Simpson [7] | A:P ratio (acetate:propionate ratio) [8] | DMD (dry matter digestibility) [8] | NDFD (neutral detergent fiber digestibility) [8] | NH3—N (ammonia nitrogen) [8] | pH [8] | Acetate ([8]; VFA composition) | Butyrate ([8]; VFA composition) | Isobutyrate ([8]; VFA composition) [%] | Isovalerate ([8]; VFA composition) | Propionate ([8]; VFA composition) | other results
O=[N+]([O-])OCCCO [3-NOP, 3-nitrooxypropanol] | – | – | – | – | – | – | – | – | – | – | – | – | – | – | – | – | – | – | – | – | toxicity / safety [1]: issues related to residues in the animal body and safety
C=CC(N)=O [AA, acrylamide] | 7.77^B | 8.31^B | 8.38^A | 9.78 | 9.39^C | 284.8^B | 0.8823^B | 284.8^B | 7.1896^B | 0.9883^B | 3.03^A | 78.14^AB % | 42.04^B % | 16.61^A mg/dL | 6.21 | 61.85^A % | 13.87^B % | 0.88 | 1.23^ABC % | 20.42^C % | Valerate ([8]; VFA composition): 1.76^B %; Acetate ([8]; concentration): 43.81^A mM; Butyrate ([8]; concentration): 9.82^AB mM; Isobutyrate ([8]; concentration): 0.62^A mM; Isovalerate ([8]; concentration): 0.87^A mM; Propionate ([8]; concentration): 14.45^AB mM; Total VFA (total volatile fatty acids) ([8]; concentration): 70.82^A mM; Valerate ([8]; concentration): 1.24 mM; CH4 (methane production per gram of degraded dry matter) [8]: 29.06^A mL/g dDM; CH4 (methane production) [8]: 11.35^A mL; TGP (total gas production) [8]: 145.83^A mL; Total bacteria (absolute quantification, qPCR) [9]: 10.30^AB; Prevotella ruminicola (absolute quantification, qPCR) [10]: 9.44^C
NC(=O)CCl [CLA, 2-chloroacetamide] | 7.96^A | 8.27^B | 8.05^AB | 9.77 | 9.54^B | 382.3^AB | 0.8847^AB | 380.8^AB | 7.5719^AB | 0.9903^AB | 2.34^B | 77.82^AB % | 43.61^B % | 13.90^B mg/dL | 6.19 | 55.96^B % | 16.30^A % | 0.80 | 1.09^BC % | 23.89^B % | Valerate ([8]; VFA composition): 1.95^AB %; Acetate ([8]; concentration): 35.41^BC mM; Butyrate ([8]; concentration): 10.25^A mM; Isobutyrate ([8]; concentration): 0.50^BC mM; Isovalerate ([8]; concentration): 0.68^B mM; Propionate ([8]; concentration): 15.07^AB mM; Total VFA (total volatile fatty acids) ([8]; concentration): 63.14^AB mM; Valerate ([8]; concentration): 1.22 mM; methane-reducing effects [8]: excellent methane-reducing effects; CH4 (methane production per gram of degraded dry matter) [8]: 10.71^C mL/g dDM; CH4 (methane production) [8]: 4.17^C mL; TGP (total gas production) [8]: 134.49^B mL; Total bacteria (absolute quantification, qPCR) [9]: 10.28^B; Prevotella ruminicola (absolute quantification, qPCR) [10]: 9.58^B; differentially abundant bacteria [11]: increases bacteria belonging to the genera Fibrobacter, Anaeroplasma, Treponema, and Succinivibrio, and the species Ruminococcus albus
NC(=O)CO [GA, glycolamide] | 7.71^B | 8.29^B | 8.33^A | 9.69 | 9.36^C | 436.4^AB | 0.8956^A | 435.6^AB | 7.8466^A | 0.9927^A | 2.92^A | 79.40^A % | 40.82^B % | 14.76^AB mg/dL | 6.22 | 60.74^A % | 14.30^B % | 0.93 | 1.32^A % | 20.83^C % | Valerate ([8]; VFA composition): 1.88^AB %; Acetate ([8]; concentration): 37.24^ABC mM; Butyrate ([8]; concentration): 8.74^B mM; Isobutyrate ([8]; concentration): 0.57^AB mM; Isovalerate ([8]; concentration): 0.80^A mM; Propionate ([8]; concentration): 12.77^B mM; Total VFA (total volatile fatty acids) ([8]; concentration): 61.27^AB mM; Valerate ([8]; concentration): 1.15 mM; CH4 (methane production per gram of degraded dry matter) [8]: 26.85^B mL/g dDM; CH4 (methane production) [8]: 10.65^B mL; TGP (total gas production) [8]: 141.74^A mL; Total bacteria (absolute quantification, qPCR) [9]: 10.25^B; Prevotella ruminicola (absolute quantification, qPCR) [10]: 9.42^C
NC(=O)CI [IA, iodoacetamide] | 7.83^AB | 8.51^A | 7.74^B | 9.68 | 9.79^A | 525.3^A | 0.8895^AB | 520.6^A | 8.0215^A | 0.9925^A | 1.89^C | 76.18^B % | 47.83^A % | 13.16^B mg/dL | 6.19 | 52.09^C % | 16.51^A % | 0.76 | 1.02^C % | 27.56^A % | Valerate ([8]; VFA composition): 2.06^A %; Acetate ([8]; concentration): 29.92^C mM; Butyrate ([8]; concentration): 9.45^AB mM; Isobutyrate ([8]; concentration): 0.43^C mM; Isovalerate ([8]; concentration): 0.58^B mM; Propionate ([8]; concentration): 15.80^A mM; Total VFA (total volatile fatty acids) ([8]; concentration): 59.25^B mM; Valerate ([8]; concentration): 1.18 mM; methane-reducing effects [8]: excellent methane-reducing effects; CH4 (methane production per gram of degraded dry matter) [8]: 0.60^D mL/g dDM; CH4 (methane production) [8]: 0.23^D mL; TGP (total gas production) [8]: 129.37^B mL; Total bacteria (absolute quantification, qPCR) [9]: 10.38^A; Prevotella ruminicola (absolute quantification, qPCR) [10]: 9.72^A; differentially abundant bacteria [11]: increases bacteria belonging to the genera Fibrobacter, Pseudobutyrivibrio, and Treponema, and the species Ruminococcus flavefaciens
CCC(N)=O [PA, propionamide] | 7.71^B | 8.31^B | 8.42^A | 9.79 | 9.35^C | 406.2^AB | 0.8873^AB | 405.6^AB | 7.6692^A | 0.9913^AB | 2.96^A | 78.34^AB % | 41.80^B % | 16.50^A mg/dL | 6.22 | 60.97^A % | 14.31^B % | 0.92 | 1.30^AB % | 20.64^C % | Valerate ([8]; VFA composition): 1.86^AB %; Acetate ([8]; concentration): 38.55^AB mM; Butyrate ([8]; concentration): 9.04^AB mM; Isobutyrate ([8]; concentration): 0.58^AB mM; Isovalerate ([8]; concentration): 0.82^A mM; Propionate ([8]; concentration): 13.04^B mM; Total VFA (total volatile fatty acids) ([8]; concentration): 63.20^AB mM; Valerate ([8]; concentration): 1.17 mM; CH4 (methane production per gram of degraded dry matter) [8]: 28.32^AB mL/g dDM; CH4 (methane production) [8]: 11.09^AB mL; TGP (total gas production) [8]: 143.63^A mL; Total bacteria (absolute quantification, qPCR) [9]: 10.27^B; Prevotella ruminicola (absolute quantification, qPCR) [10]: 9.45^C
BrC(Br)Br [bromoform] | – | – | – | – | – | – | – | – | – | – | – | – | – | – | – | – | – | – | – | – | toxicity / safety [1]: carcinogenic substance
